Assay results as given in patent US20260191968A1, “PROTAC DEGRADERS OF MLLT1 AND/OR MLLT3” (DARK BLUE THERAPEUTICS LTD, priority 2024, published 2026).

Biological target: T1, MLLT1 (Homo sapiens, UniProt Q03111)
T1 construct: host or cells: MV4-11
T1 sequence (Q03111 1-559): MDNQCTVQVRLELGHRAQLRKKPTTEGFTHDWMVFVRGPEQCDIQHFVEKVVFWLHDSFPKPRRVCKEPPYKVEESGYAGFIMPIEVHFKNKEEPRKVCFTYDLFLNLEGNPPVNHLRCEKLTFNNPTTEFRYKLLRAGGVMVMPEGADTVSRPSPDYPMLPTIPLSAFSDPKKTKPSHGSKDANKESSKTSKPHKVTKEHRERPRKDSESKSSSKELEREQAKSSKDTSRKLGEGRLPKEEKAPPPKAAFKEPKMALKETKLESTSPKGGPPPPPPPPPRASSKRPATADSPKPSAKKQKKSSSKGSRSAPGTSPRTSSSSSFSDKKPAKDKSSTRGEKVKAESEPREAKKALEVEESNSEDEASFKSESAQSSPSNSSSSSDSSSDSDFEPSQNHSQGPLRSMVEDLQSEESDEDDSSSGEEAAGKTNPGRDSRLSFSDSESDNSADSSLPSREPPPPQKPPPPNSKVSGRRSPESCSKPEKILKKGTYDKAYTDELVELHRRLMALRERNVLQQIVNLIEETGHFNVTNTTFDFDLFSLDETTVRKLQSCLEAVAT
Experiment: MLLT1 degradation assay in MV4-11 cells (JESS chemiluminescent detection), three concentrations, 24 h
Assay type: cell-based
Settings: with respect to DMSO control
Method: MLLT1 degradation efficacy of compounds were tested in an automated chemiluminescent detection system (JESS, Cat #004-650). […] 10 mM DMSO stocks were prepared, and cells were treated with three concentrations of test compounds viz. 1000, 100 and 10 nM at a final DMSO concentration of 0.1% and incubated for 24 h at 37° C., 5% CO2. […] Post run, data were analysed using “Compass for SW” software for chemiluminescent detection. The peak area for each band was used for the calculation of MLLT1 degradation with respect to DMSO control. Data is shown as “MLLT1% degradation”.

SMILES	MLLT1% Degradation @ 0.01 μM	MLLT1% Degradation @ 0.1 μM	MLLT1% Degradation @ 1 μM
C[C@@H]1CN(CC2CCN(c3cccc4c3CN(C3CCC(=O)NC3=O)C4=O)CC2)CCN1c1ccc(C(=O)Nc2cc3[nH]c([C@H]4CCCN4C)cc3cn2)cc1 (relative stereo) [Example 134, 4-((R)-4-((1-(2-((rel-R)-2,6-dioxopiperidin-3-yl)-1-oxoisoindolin-4-yl)piperidin-4-yl)methyl)-2-methylpiperazin-1-yl)-N-(2-((R)-1-methylpyrrolidin-2-yl)-1H-pyrrolo[3,2-c]pyridin-6-yl)benzamide]	B (Category B: 50% ≤ B < 75% degradation)	A (Category A: A ≥ 75% degradation)	A (Category A: A ≥ 75% degradation)
CN1CCC[C@@H]1c1cc2cnc(NC(=O)c3ccc(CCCC4CCN(c5cccc6c5CN(C5CCC(=O)NC5=O)C6=O)CC4)cc3)cc2[nH]1 (stereo in doubt) [Example 78, 4-(3-(1-(2-((rel-R)-2,6-dioxopiperidin-3-yl)-1-oxoisoindolin-4-yl)piperidin-4-yl)propyl)-N-(2-((R)-1-methylpyrrolidin-2-yl)-1H-pyrrolo[3,2-c]pyridin-6-yl)benzamide]	B (Category B: 50% ≤ B < 75% degradation)	A (Category A: A ≥ 75% degradation)	A (Category A: A ≥ 75% degradation)
CN1CCC[C@@H]1c1cc2cnc(NC(=O)c3ccc(OCCC4CCN(c5cccc6c5CN(C5CCC(=O)NC5=O)C6=O)CC4)cc3)cc2[nH]1 (stereo in doubt) [Example 80, 4-(2-(1-(2-((rel-S)-2,6-dioxopiperidin-3-yl)-1-oxoisoindolin-4-yl)piperidin-4-yl)ethoxy)-N-(2-((R)-1-methylpyrrolidin-2-yl)-1H-pyrrolo[3,2-c]pyridin-6-yl)benzamide]	A (Category A: A ≥ 75% degradation)	A (Category A: A ≥ 75% degradation)	A (Category A: A ≥ 75% degradation)
CN1CCC[C@@H]1c1cc2cnc(NC(=O)c3ccc(OCCC4CCN(c5cccc6c5CN(C5CCC(=O)NC5=O)C6=O)CC4)cc3)cc2[nH]1 (stereo in doubt) [Example 81, 4-(2-(1-(2-((rel-R)-2,6-dioxopiperidin-3-yl)-1-oxoisoindolin-4-yl)piperidin-4-yl)ethoxy)-N-(2-((R)-1-methylpyrrolidin-2-yl)-1H-pyrrolo[3,2-c]pyridin-6-yl)benzamide]	A (Category A: A ≥ 75% degradation)	A (Category A: A ≥ 75% degradation)	A (Category A: A ≥ 75% degradation)
CN1CCC[C@@H]1c1cc2cnc(NC(=O)c3ccc(OC4CCN(CC5CCN(c6cccc7c6CN(C6CCC(=O)NC6=O)C7=O)CC5)CC4)cc3)cc2[nH]1 (stereo in doubt) [Example 123, 4-((1-((1-(2-((rel-R)-2,6-dioxopiperidin-3-yl)-1-oxoisoindolin-4-yl)piperidin-4-yl)methyl)piperidin-4-yl)oxy)-N-(2-((R)-1-methylpyrrolidin-2-yl)-1H-pyrrolo[3,2-c]pyridin-6-yl)benzamide]	A (Category A: A ≥ 75% degradation)	A (Category A: A ≥ 75% degradation)	A (Category A: A ≥ 75% degradation)
CN1CCC[C@@H]1c1[nH]c2cc(NC(=O)c3ccc(OCCC4CCN(c5cccc6c5CN(C5CCC(=O)NC5=O)C6=O)CC4)cc3)ncc2c1Cl (stereo in doubt) [Example 162, N-(3-chloro-2-((R)-1-methylpyrrolidin-2-yl)-1H-pyrrolo[3,2-c]pyridin-6-yl)-4-(2-(1-(2-((rel-R)-2,6-dioxopiperidin-3-yl)-1-oxoisoindolin-4-yl)piperidin-4-yl)ethoxy)benzamide]	A (Category A: A ≥ 75% degradation)	A (Category A: A ≥ 75% degradation)	A (Category A: A ≥ 75% degradation)
CN1CCC[C@@H]1c1cc2cnc(NC(=O)c3ccc(OCCC4CCN(c5cccc6c5CN(C5CCC(=O)NC5=O)C6=O)CC4)cc3F)cc2[nH]1 (stereo in doubt) [Example 173, 4-(2-(1-(2-((rel-R)-2,6-dioxopiperidin-3-yl)-1-oxoisoindolin-4-yl)piperidin-4-yl)ethoxy)-2-fluoro-N-(2-((R)-1-methylpyrrolidin-2-yl)-1H-pyrrolo[3,2-c]pyridin-6-yl)benzamide]	B (Category B: 50% ≤ B < 75% degradation)	A (Category A: A ≥ 75% degradation)	A (Category A: A ≥ 75% degradation)
CN1CCC[C@@H]1c1cc2cnc(NC(=O)N3CCC(CCC#Cc4cccc5c4CN(C4CCC(=O)NC4=O)C5=O)CC3)cc2[nH]1 (stereo partly drawn) [Example 1, 4-(4-(2-(2,6-dioxopiperidin-3-yl)-1-oxoisoindolin-4-yl)but-3-yn-1-yl)-N-(2-((R)-1-methylpyrrolidin-2-yl)-1H-pyrrolo[3,2-c]pyridin-6-yl)piperidine-1-carboxamide]	C (Category C: 25% ≤ C < 50% degradation)	C (Category C: 25% ≤ C < 50% degradation)	C (Category C: 25% ≤ C < 50% degradation)
CN1CCC[C@@H]1c1cc2cnc(NC(=O)c3ccc(N4CCN(CC5CCN(c6cccc7c6C(=O)N(C6CCC(=O)NC6=O)C7=O)CC5)CC4)nc3)cc2[nH]1 (stereo partly drawn) [Example 5, 6-(4-((1-(2-(2,6-dioxopiperidin-3-yl)-1,3-dioxoisoindolin-4-yl)piperidin-4-yl)methyl)piperazin-1-yl)-N-(2-((R)-1-methylpyrrolidin-2-yl)-1H-pyrrolo[3,2-c]pyridin-6-yl)nicotinamide]	B (Category B: 50% ≤ B < 75% degradation)	A (Category A: A ≥ 75% degradation)	A (Category A: A ≥ 75% degradation)
CN1CCC[C@@H]1c1cc2cnc(NC(=O)c3ccc(CCCCC#Cc4cccc5c4CN(C4CCC(=O)NC4=O)C5=O)nc3)cc2[nH]1 (stereo partly drawn) [Example 10, 6-(6-(2-(2,6-dioxopiperidin-3-yl)-1-oxoisoindolin-4-yl)hex-5-yn-1-yl)-N-(2-((R)-1-methylpyrrolidin-2-yl)-1H-pyrrolo[3,2-c]pyridin-6-yl) nicotinamide]	A (Category A: A ≥ 75% degradation)	A (Category A: A ≥ 75% degradation)	B (Category B: 50% ≤ B < 75% degradation)
CN1CCC[C@@H]1c1cc2cnc(NC(=O)c3ccc(CCCC#Cc4ccc(C(=O)N[C@H]5CCC(=O)NC5=O)nc4)cc3)cc2[nH]1 [Example 11, N—((S)-2,6-dioxopiperidin-3-yl)-5-(5-(4-((2-((R)-1-methylpyrrolidin-2-yl)-1H-pyrrolo[3,2-c]pyridin-6-yl)carbamoyl)phenyl)pent-1-yn-1-yl)picolinamide]	D (Category D: D < 25% degradation)	C (Category C: 25% ≤ C < 50% degradation)	B (Category B: 50% ≤ B < 75% degradation)
CN1CCC[C@@H]1c1cc2cnc(NC(=O)c3ccc(C4CCN(c5cccc6c5C(=O)N(C5CCC(=O)NC5=O)C6=O)CC4)cc3)cc2[nH]1 (stereo partly drawn) [Example 15, 4-(1-(2-(2,6-dioxopiperidin-3-yl)-1,3-dioxoisoindolin-4-yl)piperidin-4-yl)-N-(2-((R)-1-methylpyrrolidin-2-yl)-1H-pyrrolo[3,2-c]pyridin-6-yl)benzamide]	B (Category B: 50% ≤ B < 75% degradation)	A (Category A: A ≥ 75% degradation)	B (Category B: 50% ≤ B < 75% degradation)
CN1CCC[C@@H]1c1cc2cnc(NC(=O)c3ccc(N4CCC(OCC5CCN(c6cccc7c6C(=O)N(C6CCC(=O)NC6=O)C7=O)CC5)CC4)nc3)cc2[nH]1 (stereo partly drawn) [Example 18, 6-(4-((1-(2-(2,6-dioxopiperidin-3-yl)-1,3-dioxoisoindolin-4-yl)piperidin-4-yl)methoxy)piperidin-1-yl)-N-(2-((R)-1-methylpyrrolidin-2-yl)-1H-pyrrolo[3,2-c]pyridin-6-yl)nicotinamide]	B (Category B: 50% ≤ B < 75% degradation)	A (Category A: A ≥ 75% degradation)	A (Category A: A ≥ 75% degradation)
CN1CCC[C@@H]1c1cc2cnc(NC(=O)c3ccc(OCC#Cc4cccc5c4CN(C4CCC(=O)NC4=O)C5=O)c(Cl)c3)cc2[nH]1 (stereo partly drawn) [Example 23, 3-chloro-4-((3-(2-(2,6-dioxopiperidin-3-yl)-1-oxoisoindolin-4-yl)prop-2-yn-1-yl)oxy)-N-(2-((R)-1-methylpyrrolidin-2-yl)-1H-pyrrolo[3,2-c]pyridin-6-yl)benzamide]	C (Category C: 25% ≤ C < 50% degradation)	C (Category C: 25% ≤ C < 50% degradation)	C (Category C: 25% ≤ C < 50% degradation)
